Test results from patent publication US10525041B2, “Fluoroalkyl-substituted aryltriazole derivatives and uses thereof” (BAYER PHARMA AKTIENGESELLSCHAFT, priority 2016, dated 2020).
pIC50: −log10 of the molar value.

Columns and labels:
[1] = target: T1, human V2 receptor (Homo sapiens, UniProt P30518); assay: Cellular in vitro assay for vasopressin receptor activity, V2 cell line (CRE-luciferase); format: cell-based; details: CHO cell line transfected with human V2 receptor; agonist [Arg8]-vasopressin at EC50 concentration, 3 hours; read-out: IC50hV2
T1 construct: expressed in transfected cells; host or cells: CHO K1 (ATCC) line expressing firefly luciferase under a CRE-responsive promoter

[2] = target: T2, human V1a receptor (Homo sapiens, UniProt P37288); assay: Cellular in vitro assay for vasopressin receptor activity, V1a cell line (aequorin luminescence); format: cell-based; details: for pIC50: CHO cell line transfected with human V1a receptor, agonist [Arg8]-vasopressin at EC50 concentration, read-out: IC50hV1a; for ratio IC50 hV2/hV1a: ratio of the IC50 on human V2 to the IC50 on human V1a
T2 construct: expressed in transfected cells; host or cells: CHO K1 (ATCC), also stably transfected with a modified aequorin
Outline: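 CHO K1 cells stably expressing human V1a receptor with aequorin photoprotein, loaded overnight with coelenterazine. Compounds preincubated 10 min at various concentrations, then challenged with [Arg^8]-vasopressin at EC50 concentration. Calcium-driven luminescence read immediately; IC50 values derived.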

T2 sequence (P37288 whole entry): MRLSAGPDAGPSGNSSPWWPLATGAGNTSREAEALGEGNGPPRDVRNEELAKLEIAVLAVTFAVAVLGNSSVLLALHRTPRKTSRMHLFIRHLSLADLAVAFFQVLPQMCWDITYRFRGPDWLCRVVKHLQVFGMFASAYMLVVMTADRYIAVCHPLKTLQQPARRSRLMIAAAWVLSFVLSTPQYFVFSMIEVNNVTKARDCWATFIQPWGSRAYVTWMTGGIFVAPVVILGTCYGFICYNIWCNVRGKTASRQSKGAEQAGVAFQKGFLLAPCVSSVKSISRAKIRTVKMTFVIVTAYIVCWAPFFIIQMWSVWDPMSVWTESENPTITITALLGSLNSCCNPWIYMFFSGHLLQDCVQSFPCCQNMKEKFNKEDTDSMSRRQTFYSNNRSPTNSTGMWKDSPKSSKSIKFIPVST
T1 sequence (P30518 whole entry): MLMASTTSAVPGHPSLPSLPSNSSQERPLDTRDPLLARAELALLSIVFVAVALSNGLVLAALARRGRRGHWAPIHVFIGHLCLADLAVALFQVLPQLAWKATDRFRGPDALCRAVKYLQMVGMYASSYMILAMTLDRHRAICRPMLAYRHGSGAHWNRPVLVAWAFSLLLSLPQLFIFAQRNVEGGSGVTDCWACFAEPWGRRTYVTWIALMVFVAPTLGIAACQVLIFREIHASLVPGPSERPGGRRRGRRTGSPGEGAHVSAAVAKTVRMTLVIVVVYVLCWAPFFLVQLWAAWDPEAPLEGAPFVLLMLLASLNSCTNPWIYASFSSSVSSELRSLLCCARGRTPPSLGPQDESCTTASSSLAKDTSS

SMILES | pIC50 [1] | pIC50 [2] | ratio IC50 hV2/hV1a [2]
CC(F)c1nc(Cn2nc(-c3ccc(Cl)cc3)n(C[C@H](O)C(F)(F)F)c2=O)nn1-c1c(Cl)cccc1Cl (mixture of isomers) [Example 43, 5-(4-Chlorophenyl)-2-({1-(2,6-dichlorophenyl)-5-[1-fluoroethyl]-1H-1,2,4-triazol-3-yl}methyl)-4-[(2S)-3,3,3-trifluoro-2-hydroxypropyl]-2,4-dihydro-3H-1,2,4-triazol-3-one] | 8.51 | 8.69 | 1.5
CC(F)c1nc(Cn2nc(-c3ccc(Cl)cc3)n(C[C@H](O)C(F)(F)F)c2=O)nn1-c1cnccc1Cl (single isomer, unassigned) [Example 5] | 7.13 | 8.16 | 10.8
CCc1ccccc1-n1nc(Cn2nc(-c3ccc(Cl)cc3)n(C[C@H](O)C(F)(F)F)c2=O)nc1C(C)F (single isomer, unassigned) [Example 29] | 9.43 | 9.04 | 0.4
CC(F)c1nc(Cn2nc(-c3ccc(Cl)cc3)n(C[C@H](O)C(F)(F)F)c2=O)nn1-c1ccccc1S(N)(=O)=O (mixture of isomers) [Example 41, 2-{3-({3-(4-Chlorophenyl)-5-oxo-4-[(2S)-3,3,3-trifluoro-2-hydroxypropyl]-4,5-dihydro-1H-1,2,4-triazol-1-yl}methyl)-5-[1-fluoroethyl]-1H-1,2,4-triazol-1-yl}benzenesulfonamide] | 6.53 | 7.07 | 3.5
CC(F)c1nc(Cn2nc(-c3ccc(Cl)cc3)n(C[C@H](O)C(F)(F)F)c2=O)nn1-c1c(F)cccc1Cl (mixture of isomers) [Example 44, 2-({1-(2-chloro-6-fluorophenyl)-5-[1-fluoroethyl]-1H-1,2,4-triazol-3-yl}methyl)-5-(4-Chlorophenyl)-4-[(2S)-3,3,3-trifluoro-2-hydroxypropyl]-2,4-dihydro-3H-1,2,4-triazol-3-one] | 8.53 | 8.98 | 2.8
CC(F)c1nc(Cn2nc(-c3ccc(Cl)cc3)n(C[C@H](O)C(F)(F)F)c2=O)nn1-c1cnccc1Cl (mixture of isomers) [Example 4, 5-(4-Chlorophenyl)-2-({1-(4-chloropyridin-3-yl)-5-[1-fluoroethyl]-1H-1,2,4-triazol-3-yl}methyl)-4-[(2S)-3,3,3-trifluoro-2-hydroxypropyl]-2,4-dihydro-3H-1,2,4-triazol-3-one] | 7.73 | 8.69 | 9.0
CC(F)c1nc(Cn2nc(-c3ccc(Cl)cc3)n(C[C@H](O)C(F)(F)F)c2=O)nn1-c1ncccc1C(F)(F)F (single isomer, unassigned) [Example 12] | 7.65 | 8.42 | 5.9
CC(F)c1nc(Cn2nc(-c3ccc(Cl)cc3)n(C[C@H](O)C(F)(F)F)c2=O)nn1-c1ccccc1Cl (single isomer, unassigned) [Example 3] | 9.03 | 9.05 | 1.0
CC(F)c1nc(Cn2nc(-c3ccc(Cl)cc3)n(C[C@H](O)C(F)(F)F)c2=O)nn1-c1cccc(F)c1 (single isomer, unassigned) [Example 15] | 8.11 | 7.90 | 0.6
Cc1cccc(C)c1-n1nc(Cn2nc(-c3ccc(Cl)cc3)n(C[C@H](O)C(F)(F)F)c2=O)nc1C(C)F (mixture of isomers) [Example 46, 5-(4-Chlorophenyl)-2-({1-(2,6-dimethylphenyl)-5-[1-fluoroethyl]-1H-1,2,4-triazol-3-yl}methyl)-4-[(2S)-3,3,3-trifluoro-2-hydroxypropyl]-2,4-dihydro-3H-1,2,4-triazol-3-one] | 8.76 | 8.49 | 0.5
Cc1ccccc1-n1nc(Cn2nc(-c3ccc(Cl)cc3)n(C[C@H](O)C(F)(F)F)c2=O)nc1C(C)F (single isomer, unassigned) [Example 36] | 9.01 | 9.19 | 1.5
CC(F)c1nc(Cn2nc(-c3ccc(Cl)cc3)n(C[C@H](O)C(F)(F)F)c2=O)nn1-c1c(F)cccc1F (mixture of isomers) [Example 45, 5-(4-Chlorophenyl)-2-({1-(2,6-difluorophenyl)-5-[1-fluoroethyl]-1H-1,2,4-triazol-3-yl}methyl)-4-[(2S)-3,3,3-trifluoro-2-hydroxypropyl]-2,4-dihydro-3H-1,2,4-triazol-3-one] | 8.53 | 8.66 | 1.3
CCOc1ccccc1-n1nc(Cn2nc(-c3ccc(Cl)cc3)n(C[C@H](O)C(F)(F)F)c2=O)nc1C(C)F (mixture of isomers) [Example 42, 5-(4-Chlorophenyl)-2-({1-(2-ethoxyphenyl)-5-[1-fluoroethyl]-1H-1,2,4-triazol-3-yl}methyl)-4-[(2S)-3,3,3-trifluoro-2-hydroxypropyl]-2,4-dihydro-3H-1,2,4-triazol-3-one] | 8.31 | 8.72 | 2.6
CC(F)c1nc(Cn2nc(-c3ccc(Cl)cc3)n(C[C@H](O)C(F)(F)F)c2=O)nn1-c1cccc(F)c1 (single isomer, unassigned) [Example 14] | 8.76 | 8.01 | 0.2

The next lines start with the values.

pIC50 [1] | pIC50 [2] | ratio IC50 hV2/hV1a [2] | SMILES
8.28 | 7.81 | 0.3 | CC(F)(F)c1nc(Cn2nc(-c3ccc(Cl)cc3)n(C[C@H](O)C(F)(F)F)c2=O)nn1-c1cccc(F)c1 [Example 56, 5-(4-Chlorophenyl)-2-{[5-(1,1-difluoroethyl)-1-(3-fluorophenyl)-1H-1,2,4-triazol-3-yl]methyl}-4-[(2S)-3,3,3-trifluoro-2-hydroxypropyl]-2,4-dihydro-3H-1,2,4-triazol-3-one]
7.61 | 8.70 | 12.3 | CC(F)(F)c1nc(Cn2nc(-c3ccc(Cl)cc3)n(C[C@H](O)C(F)(F)F)c2=O)nn1-c1cnccc1C(F)(F)F [Example 57, 5-(4-Chlorophenyl)-2-({5-(1,1-difluoroethyl)-1-[4-(trifluoromethyl)pyridin-3-yl]-1H-1,2,4-triazol-3-yl}methyl)-4-[(2S)-3,3,3-trifluoro-2-hydroxypropyl]-2,4-dihydro-3H-1,2,4-triazol-3-one]
8.23 | 7.97 | 0.5 | O=c1n(Cc2nc(C(F)F)n(-c3cccc(F)c3)n2)nc(-c2ccc(Cl)cc2)n1C[C@H](O)C(F)(F)F [Example 52, 5-(4-Chlorophenyl)-2-{[5-(difluoromethyl)-1-(3-fluorophenyl)-1H-1,2,4-triazol-3-yl]methyl}-4-[(2S)-3,3,3-trifluoro-2-hydroxypropyl]-2,4-dihydro-3H-1,2,4-triazol-3-one]
8.59 | 7.44 | 0.1 | O=c1n(Cc2nc(C(F)F)n(-c3cccc(Cl)c3)n2)nc(-c2ccc(Cl)cc2)n1C[C@H](O)C(F)(F)F [Example 50, 5-(4-Chlorophenyl)-2-{[1-(3-chlorophenyl)-5-(difluoromethyl)-1H-1,2,4-triazol-3-yl]methyl}-4-[(2S)-3,3,3-trifluoro-2-hydroxypropyl]-2,4-dihydro-3H-1,2,4-triazol-3-one]
8.65 | 8.66 | 1.0 | CCc1ccccc1-n1nc(Cn2nc(-c3ccc(Cl)cc3)n(C[C@H](O)C(F)(F)F)c2=O)nc1C(C)(F)F [Example 62, 5-(4-Chlorophenyl)-2-{[5-(1,1-difluoroethyl)-1-(2-ethylphenyl)-1H-1,2,4-triazol-3-yl]methyl}-4-[(2S)-3,3,3-trifluoro-2-hydroxypropyl]-2,4-dihydro-3H-1,2,4-triazol-3-one]
7.94 | 8.52 | 3.7 | CC(F)(F)c1nc(Cn2nc(-c3ccc(Cl)cc3)n(C[C@H](O)C(F)(F)F)c2=O)nn1-c1ccccc1[N+](=O)[O-] [Example 65, 5-(4-Chlorophenyl)-2-{[5-(1,1-difluoroethyl)-1-(2-nitrophenyl)-1H-1,2,4-triazol-3-yl]methyl}-4-[(2S)-3,3,3-trifluoro-2-hydroxypropyl]-2,4-dihydro-3H-1,2,4-triazol-3-one]
8.37 | 8.48 | 1.3 | CC(F)(F)c1nc(Cn2nc(-c3ccc(Cl)cc3)n(C[C@H](O)C(F)(F)F)c2=O)nn1-c1c(Cl)cccc1Cl [Example 68, 5-(4-Chlorophenyl)-2-{[1-(2,6-dichlorophenyl)-5-(1,1-difluoroethyl)-1H-1,2,4-triazol-3-yl]methyl}-4-[(2S)-3,3,3-trifluoro-2-hydroxypropyl]-2,4-dihydro-3H-1,2,4-triazol-3-one]
8.31 | 7.52 | 0.2 | CCc1cccc(C)c1-n1nc(Cn2nc(-c3ccc(Cl)cc3)n(C[C@H](O)C(F)(F)F)c2=O)nc1C(C)F (mixture of isomers) [Example 48, 5-(4-Chlorophenyl)-2-({1-(2-ethyl-6-methylphenyl)-5-[1-fluoroethyl]-1H-1,2,4-triazol-3-yl}methyl)-4-[(2S)-3,3,3-trifluoro-2-hydroxypropyl]-2,4-dihydro-3H-1,2,4-triazol-3-one]
8.66 | 8.83 | 1.5 | O=c1n(Cc2nc(C(F)F)n(-c3ccccc3Cl)n2)nc(-c2ccc(Cl)cc2)n1C[C@H](O)C(F)(F)F [Example 51, 5-(4-Chlorophenyl)-2-{[1-(2-chlorophenyl)-5-(difluoromethyl)-1H-1,2,4-triazol-3-yl]methyl}-4-[(2S)-3,3,3-trifluoro-2-hydroxypropyl]-2,4-dihydro-3H-1,2,4-triazol-3-one]
